Consider three compounds from patent publication US20250277066A1, “Substituted Pyridine-2,6-Bis(Phenylenephenolate) Complexes with Enhanced Solubility that are Useful as Catalyst Components for Olefin Polymerization” (ExxonMobil Chemical Patents Inc., priority 2022, published 2025).

Data set [1] can be described thus: DSC melting point of polymers (TA-Q100). Format: physicochemical. Here is the method: Differential Scanning Calorimetry (DSC) measurements were performed on a TA-Q100 instrument to determine the melting point of the polymers. Samples were pre-annealed at 220° C. for 15 minutes and then allowed to cool to room temperature overnight. The samples were then heated to 220° C. at a rate of 100° C./minute and then cooled at a rate of 50° C./minute. Melting points were collected during the heating period. The results are reported in the Table 2 under the heading, Tm (° C.).

The nature of data set [2]: Rapid GPC of polymers (Mn, Mw, Mz, PDI). On the set-up: Mn / Mw / Mz: unit not given here. Format: physicochemical. Here is the method:
For analytical testing, polymer sample solutions were prepared by dissolving polymer in 1,2,4-trichlorobenzene (TCB, 99+% purity from Sigma-Aldrich) containing 2,6-di-tert-butyl-4-methylphenol (BHT, 99% from Aldrich) at 165° C. in a shaker oven for approximately 3 hours. The typical concentration of polymer in solution was between 0.1 to 0.9 mg/mL with a BHT concentration of 1.25 mg BHT/mL of TCB. Samples were cooled to 135° C. for testing.
High temperature size exclusion chromatography was performed using an automated “Rapid GPC” system as described in U.S. Pat. Nos. 6,491,816; 6,491,823; 6,475,391; 6,461,515; 6,436,292; 6,406,632; 6,175,409; 6,454,947; 6,260,407; and 6,294,388; each of which is incorporated herein by reference. Molecular weights (weight average molecular weight (Mw), number average molecular weight (Mn) and z average molecular weight (Mz)) and molecular weight distribution (MWD=Mw/Mn), which is also sometimes referred to as the polydispersity (PDI) of the polymer, were measured by Gel Permeation Chromatography using a Symyx Technology GPC equipped with evaporative light scattering detector (ELSD) and calibrated using polystyrene standards (Polymer Laboratories: Polystyrene Calibration Kit S-M-10: Mp (peak Mw) between 5,000 and 3,390,000). Alternatively, samples were measured by Gel Permeation Chromatography using a Symyx Technology GPC equipped with dual wavelength infrared detector and calibrated using polystyrene standards (Polymer Laboratories: Polystyrene Calibration Kit S-M-10: Mp (peak Mw) between 580 and 3,039,000). […] No column spreading corrections were employed. Numerical analyses were performed using Epoch® software available from Symyx Technologies or Automation Studio software available from Freeslate. The molecular weights obtained are relative to linear polystyrene standards. Molecular weight data is reported in Table 2 under the headings Mn, Mw, Mz and PDI as defined above.

The nature of data set [3]: Propylene polymerization (PP) in small-scale autoclave reactors: yield, quench time, catalyst activity. To be noted: activator A. The text has this: Solutions of the pre-catalysts were made using toluene (ExxonMobil Chemical—anhydrous, stored under N2) (98%) or isohexane (ExxonMobil Chemical—polymerization grade, and purified as described below). Pre-catalyst solutions were typically 0.25 mmol/L.
Solvents, polymerization grade toluene and/or isohexanes were supplied by ExxonMobil Chemical Co. and are purified by passing through a series of columns: two 500 cc Oxyclear cylinders in series from Labclear (Oakland, Calif), followed by two 500 cc columns in series packed with dried […] (8-12 mesh; Aldrich Chemical Company), and two 500 cc columns in series packed with dried 5 Å mole sieves (8-12 mesh; Aldrich Chemical Company).
Polymerization grade propylene (C3) was used and further purified by passing it through a series of columns: 2250 cc Oxiclear cylinder from Labclear followed by a 2250 cc column packed with 3 Å mole sieves (8-12 mesh; Aldrich Chemical Company), then two 500 cc columns in series packed with 5 Å mole sieves (8-12 mesh; Aldrich Chemical Company), then a 500 cc column packed with Selexsorb CD (BASF), and finally a 500 cc column packed with Selexsorb COS (BASF).
Activation of the pre-catalysts was either by dimethylanilinium tetrakisperfluorophenylborate (Boulder Scientific or Albemarle Corp; Act ID=A) or is (hydrogenated tallow alkyl)methylammonium tetrakis(pentafluorophenyl)borate supplied as a 10 wt % solution in methylcyclohexane (Boulder Scientific; Act ID=B). Activators were typically used as a 0.25 mmol/L solution in toluene or isohexane.
Tri-n-octylaluminum (TnOAl or TNOA, Neat, AkzoNobel) was also used as a scavenger prior to introduction of the activator and pre-catalyst into the reactor. TNOA was typically used as a 5 mmol/L solution in toluene or isohexane.
Polymerizations were conducted in an inert atmosphere (N2) drybox using autoclaves equipped with an external heater for temperature control, glass inserts (internal volume of reactor=23.5 mL for C2 and C2/C8; 22.5 mL for C3 runs), septum inlets, regulated supply of nitrogen, ethylene and propylene, and equipped with disposable PEEK mechanical stirrers (800 RPM). The autoclaves were prepared by purging with dry nitrogen at 110° C. or 115° C. for 5 hours and then at 25° C. for 5 hours.
The reactor was prepared as described above, then heated to 40° C., and then purged with propylene gas at atmospheric pressure. Toluene or isohexanes, liquid propylene (1.0 mL) and scavenger (TNOA, 0.5 μmol) were added via syringe. The reactor was then brought to process temperature (70° C. or 100° C.) while stirring at 800 RPM. The activator solution, followed by the pre-catalyst solution, were injected via syringe to the reactor at process conditions. Reactor temperature was monitored and typically maintained within +/−1° C. Polymerizations were halted by addition of approximately 50 psi compressed dry air gas mixture to the autoclaves for approximately 30 seconds. The polymerizations were quenched based on a predetermined pressure loss (maximum quench value) or for a maximum of 30 minutes. The reactors were cooled and vented. The polymers were isolated after the solvent was removed in-vacuo. The actual quench time (s) is reported as quench time (s). Yields reported include total weight of polymer and residual catalyst. Catalyst activity is reported as grams of polymer per mmol transition metal compound per hour of reaction time (g/mmol·hr).
Polymerization results are collected in Tables 2 below. “Ex #” stands for example number. Example numbers starting with a “C” are comparative examples. “Cat ID” identifies the pre-catalyst used in the experiment. Corresponding numbers identifying the pre-catalyst (also referred to as pre-catalyst, catalyst, complex or compound) are located in the synthetic experimental section. T(° C.) is the polymerization temperature which was typically maintained within +/−1° C. “Yield” is polymer yield, and is not corrected for catalyst residue. […]

The nature of data set [4]: Solubility of complexes in isohexane (Method 1 or Method 2). Format: physicochemical. To be noted: ambient temperature (20° C.-25° C.), mass includes residual solvent. Here is the method: Solubility studies for all other complexes were performed using material as synthesized. […] Solvents used were sparged with nitrogen (30-60 minutes) and dried over 3 Å mole sieves. Unless stated otherwise all measurements were performed at ambient temperature (20° C.-25° C.).
General procedure: Solubility was determined using the following Method 1 or Method 2. For calculations, a value of 0.672 g/mL was used for the density of isohexane.
Method 1: A tared vial was loaded with a small amount of the complex (actual mass recorded, including any residual solvent as noted above, typically 5-30 mg). Then a small stir bar (8 mm) was added. Solvent was then added and the mixture was stirred rapidly (1000 rpm). […] This process was repeated until either a clear solution was obtained (no visible solids or murkiness) or the vial was full. As the mixture approached homogeneity (i.e., few remaining solids observed) the volume of the solvent additions was kept small (<1 mL) to minimize excess beyond the solvent required to achieve homogeneity. The stir bar was then removed and the mass of the mixture was measured. If a clear solution had formed then the solubility of the complex was calculated as a single value, based on the mass of complex and the amount of solvent added to achieve a homogeneous solution. If the mixture remained heterogeneous (visible solids or murky), then the value reported is given as being “less than” the calculated value.
Method 2: A measured amount of complex (actual mass recorded, including any residual solvent as noted above) was added to a tared vial, followed by a stir bar. Dry isohexanes were added in small portions and the resulting mixture was stirred after each portion of isohexanes. If a clear solution had formed then the solubility was reported as a range, the lower bound of solubility calculated using the total solvent added to achieve a homogenous solution and the upper bound of solubility calculated using the total solvent measured prior to achieving a homogenous solution. If the mixture remained heterogeneous (visible solids or murky), the upper bound of solubility was calculated using the total solvent added. Formula used to calculate solubility are listed below. Solvent present in the complex is included in the mass and formula weight of the complexes.

Setting [5] is: polypropylene made with activator A at 70° C.
[6] abbreviates: polypropylene made with activator A at 100° C.
Where [7] appears, read: polypropylene made with activator A at 70° C., Mw/Mn.
Setting [8] is: polypropylene made with activator A at 100° C., Mw/Mn.
Where [9] appears, read: polymer made with activator A, T 70 ° C.

Molecules are shown by their SMILES. “And” between values parts separate entries of the source, which are not always exact repeats. Identical values can stand only once.

Consider `Cc1cc2c(c(C34CC5CC(C)(CC(C)(C5)C3)C4)c1)[O][Hf-]1([CH3])([CH3])[O]c3c(cc(C)cc3C34CC5CC(C)(CC(C)(C5)C3)C4)-c3ccccc3-c3cc(N4CCCC4)cc([n+]31)-c1ccccc1-2` [Complex 30], for which the Tm was 163.3 °C and 163.5 °C and 164.8 °C in data set [1] (setting [5]); 158.0 °C and 158.7 °C and 159.0 °C in data set [1] (setting [6]). Besides, the Mn is 186,851 and 187,906 and 245,411 in data set [2] (setting [5]); 86,554 and 106,308 and 121,006 in data set [2] (setting [6]). The Mw in data set [2] (setting [5]) was 346,587 and 346,773 and 427,041; in data set [2] (setting [6]) it was 147,732 and 177,827 and 199,815. The Mz was 762,107 and 711,356 and 871,754 in data set [2] (setting [5]); 301,600 and 354,753 and 438,188 in data set [2] (setting [6]). The PDI in data set [2] (setting [7]) is 1.85 and 1.74; in data set [2] (setting [8]), 1.71 and 1.67 and 1.65. In addition, the Activity is 7,103 g P/mmol cat • hr and 6,836 g P/mmol cat • hr and 8,533 g P/mmol cat • hr in data set [3] (T 70° C.); 4,453 g P/mmol cat • hr and 6,707 g P/mmol cat • hr and 8,689 g P/mmol cat • hr in data set [3] (T 100° C.).
Take `Cc1cc2[n+]3c(c1)-c1ccccc1-c1cc(C(C)(C)C)cc(C45CC6CC(CC(C6)C4)C5)c1[O][Zr-]3([CH3])([CH3])[O]c1c(cc(C(C)(C)C)cc1C13CC4CC(CC(C4)C1)C3)-c1ccccc1-2` [compound 3]: the Tm in data set [1] (setting [9]) was 150.7 °C. Also, in data set [2] (setting [9]), the Mn is 206,080, the Mw is 676,784, the Mz is on record as 2,471,266 and the PDI was found to be 3.28. Moreover, the Activity in data set [3] (T 70° C.) is listed as 1,251,771 g P/mmol cat • hr.
As for `Cc1cc2c(c(C34CC5CC(CC(C5)C3)C4)c1)[O][Zr-]1([CH3])([CH3])[O]c3c(cc(C)cc3C34CC5CC(CC(C5)C3)C4)-c3ccccc3-c3cccc([n+]31)-c1ccccc1-2` [Complex 1], the Tm in data set [1] (setting [5]) is 147.5 °C and 147.3 °C and 148.1 °C; in data set [1] (setting [6]), 145.8 °C and 147.0 °C. For the same compound, the “Solubility (s) in Isohexane” value in data set [4] was less than 600 µM. Moreover, the “Solubility (s) in Isohexane (wt %)” value in data set [4] was less than 0.08 wt %. In addition, the Mn in data set [2] (setting [5]) is 57,753 and 64,376 and 67,290; in data set [2] (setting [6]), 28,762 and 34,553 and 48,560. Moreover, the Mw in data set [2] (setting [5]) was 372,797 and 502,821 and 428,075; in data set [2] (setting [6]) it was 152,087 and 155,815 and 169,007. For the same compound, the Mz was 1,464,190 and 2,141,863 and 1,753,319 in data set [2] (setting [5]); 646,646 and 665,846 and 624,200 in data set [2] (setting [6]). For the same compound, the PDI in data set [2] (setting [7]) was 6.46 and 7.81 and 6.36; in data set [2] (setting [8]), 5.29 and 4.51 and 3.48. Besides, the Activity in data set [3] (T 70° C.) was 5,668,800 g P/mmol cat • hr and 7,619,077 g P/mmol cat • hr and 6,920,571 g P/mmol cat • hr; in data set [3] (T 100° C.), 3,931,500 g P/mmol cat • hr and 4,448,471 g P/mmol cat • hr and 2,644,800 g P/mmol cat • hr.
